# Measured values from US20230057568A1, “COMPOUNDS FOR TREATING FAMILIAL DYSAUTONOMIA” (PTC THERAPEUTICS, INC., priority 2019, published 2023).
# Tested on: Elongator complex protein 1 (ELP1, also referred to as IKBKAP)
# Assay: IKBKAP-HTRF Assay
# Format: cell-based, human
# Conditions: FD patient-derived fibroblasts GM04589, 48 hours incubation; for EC2x for IKBKAP protein expression (concentration producing two times the amount of IKBKAP protein vs DMSO vehicle control): 7-point concentration curve; for MFI (maximum fold increase in IKBKAP protein abundance relative to the vehicle control): HTRF
# Summary of the method: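 Sandwich HTRF (anti-IKAP d2 and K(9+8)) on cell lysates measured IKBKAP protein after overnight 4 °C incubation, read at 665 and 620 nm. Lysates came from FD patient cells exposed 48 hours to 7-point compound dilutions, in triplicate. Outputs: maximum fold increase over vehicle, and EC2× (the concentration giving twice the DMSO-control protein level).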
compound,measurement,value
"C[C@H](N)Cc1sc2c(NCc3cccs3)nc(C#N)nc2c1Br [Cpd 83, 6-[(2S)-2-aminopropyl]-7-bromo-4-{[(thiophen-2-yl)methyl]amino}thieno[3,2-d]pyrimidine-2-carbonitrile]",EC2x for IKBKAP protein expression (concentration producing two times the amount of IKBKAP protein vs DMSO vehicle control),**** (between >0.005 μM and ≤0.02 μM)
same,MFI (maximum fold increase in IKBKAP protein abundance relative to the vehicle control),***** (>4.9)
"N#Cc1csc2c(NCc3cccs3)nc(Cl)nc12 [Cpd 84, 2-chloro-4-{[(thiophen-2-yl)methyl]amino}thieno[3,2-d]pyrimidine-7-carbonitrile]",EC2x for IKBKAP protein expression (concentration producing two times the amount of IKBKAP protein vs DMSO vehicle control),*** (between >0.02 μM and ≤0.5 μM)
same,MFI (maximum fold increase in IKBKAP protein abundance relative to the vehicle control),**** (between >3.9 and <4.9)
"C[C@H](N)Cc1sc2c(NCc3cccs3)nc(C#N)nc2c1C#N [Cpd 85, 6-[(2S)-2-aminopropyl]-4-{[(thiophen-2-yl)methyl]amino}thieno[3,2-d]pyrimidine-2,7-dicarbonitrile]",EC2x for IKBKAP protein expression (concentration producing two times the amount of IKBKAP protein vs DMSO vehicle control),*** (between >0.02 μM and ≤0.5 μM)
same,MFI (maximum fold increase in IKBKAP protein abundance relative to the vehicle control),*** (between >2.9 and <3.9)
"C[C@H](N)Cc1sc2c(NCc3cccs3)nc(Cl)nc2c1C1CC1 [Cpd 86, 6-[(2S)-2-aminopropyl]-2-chloro-7-cyclopropyl-N-[(thiophen-2-yl)methyl]thieno[3,2-d]pyrimidin-4-amine]",EC2x for IKBKAP protein expression (concentration producing two times the amount of IKBKAP protein vs DMSO vehicle control),**** (between >0.005 μM and ≤0.02 μM)
same,MFI (maximum fold increase in IKBKAP protein abundance relative to the vehicle control),**** (between >3.9 and <4.9)
"C[C@H](N)Cc1sc2c(NCc3cccs3)nc(Cl)nc2c1-c1ccccc1 [Cpd 87, 6-[(2S)-2-aminopropyl]-2-chloro-7-phenyl-N-[(thiophen-2-yl)methyl]thieno[3,2-d]pyrimidin-4-amine]",EC2x for IKBKAP protein expression (concentration producing two times the amount of IKBKAP protein vs DMSO vehicle control),* (EC2×>1 μM)
same,MFI (maximum fold increase in IKBKAP protein abundance relative to the vehicle control),* (MFI<1.9)
"C[C@H](N)Cc1sc2c(NCc3cccs3)nc(Cl)nc2c1-c1ccc(Cl)cc1 [Cpd 88, 6-[(2S)-2-aminopropyl]-2-chloro-7-(4-chlorophenyl)-N-[(thiophen-2-yl)methyl]thieno[3,2-d]pyrimidin-4-amine]",EC2x for IKBKAP protein expression (concentration producing two times the amount of IKBKAP protein vs DMSO vehicle control),* (EC2×>1 μM)
same,MFI (maximum fold increase in IKBKAP protein abundance relative to the vehicle control),* (MFI<1.9)
"CC[C@H](N)Cc1sc2c(NCc3ccncn3)nc(Cl)nc2c1C [Cpd 89, 6-[(2S)-2-aminobutyl]-2-chloro-7-methyl-N-[(pyrimidin-4-yl)methyl]thieno[3,2-d]pyrimidin-4-amine]",EC2x for IKBKAP protein expression (concentration producing two times the amount of IKBKAP protein vs DMSO vehicle control),***** (<0.005 μM)
same,MFI (maximum fold increase in IKBKAP protein abundance relative to the vehicle control),***** (>4.9)
"Cc1c(C[C@H](C)N)sc2c(NCc3sccc3F)nc(Cl)nc12 [Cpd 90, 6-[(2S)-2-aminopropyl]-2-chloro-N-[(3-fluorothiophen-2-yl)methyl]-7-methylthieno[3,2-d]pyrimidin-4-amine]",EC2x for IKBKAP protein expression (concentration producing two times the amount of IKBKAP protein vs DMSO vehicle control),***** (<0.005 μM)
same,MFI (maximum fold increase in IKBKAP protein abundance relative to the vehicle control),***** (>4.9)
"CC[C@H](N)Cc1sc2c(NCc3sccc3F)nc(Cl)nc2c1C [Cpd 91, 6-[(2S)-2-aminobutyl]-2-chloro-N-[(3-fluorothiophen-2-yl)methyl]-7-methylthieno[3,2-d]pyrimidin-4-amine]",EC2x for IKBKAP protein expression (concentration producing two times the amount of IKBKAP protein vs DMSO vehicle control),**** (between >0.005 μM and ≤0.02 μM)
same,MFI (maximum fold increase in IKBKAP protein abundance relative to the vehicle control),***** (>4.9)
"Cc1c(C[C@H](C)N)sc2c(NCc3nc(F)cs3)nc(Cl)nc12 [Cpd 92, 6-[(2S)-2-aminopropyl]-2-chloro-N-[(4-fluoro-1,3-thiazol-2-yl)methyl]-7-methylthieno[3,2-d]pyrimidin-4-amine]",EC2x for IKBKAP protein expression (concentration producing two times the amount of IKBKAP protein vs DMSO vehicle control),***** (<0.005 μM)
same,MFI (maximum fold increase in IKBKAP protein abundance relative to the vehicle control),***** (>4.9)
"Cc1c(C[C@H](C)N)sc2c(NCc3ncc(F)s3)nc(Cl)nc12 [Cpd 93, 6-[(2S)-2-aminopropyl]-2-chloro-N-[(5-fluoro-1,3-thiazol-2-yl)methyl]-7-methylthieno[3,2-d]pyrimidin-4-amine]",EC2x for IKBKAP protein expression (concentration producing two times the amount of IKBKAP protein vs DMSO vehicle control),**** (between >0.005 μM and ≤0.02 μM)
same,MFI (maximum fold increase in IKBKAP protein abundance relative to the vehicle control),***** (>4.9)
"Cc1c([C@@H](C)N)sc2c(NCc3ccco3)nc(Cl)nc12 [Cpd 94, 6-[(1R)-1-aminoethyl]-2-chloro-N-[(furan-2-yl)methyl]-7-methylthieno[3,2-d]pyrimidin-4-amine]",EC2x for IKBKAP protein expression (concentration producing two times the amount of IKBKAP protein vs DMSO vehicle control),* (EC2×>1 μM)
same,MFI (maximum fold increase in IKBKAP protein abundance relative to the vehicle control),* (MFI<1.9)
"Clc1nc(NCc2ccncn2)c2sccc2n1 [Cpd 95, 2-chloro-N-[(pyrimidin-4-yl)methyl]thieno[3,2-d]pyrimidin-4-amine]",EC2x for IKBKAP protein expression (concentration producing two times the amount of IKBKAP protein vs DMSO vehicle control),* (EC2×>1 μM)
same,MFI (maximum fold increase in IKBKAP protein abundance relative to the vehicle control),*** (between >2.9 and <3.9)
"Clc1nc(NCc2nccs2)c2sccc2n1 [Cpd 96, 2-chloro-N-[(1,3-thiazol-2-yl)methyl]thieno[3,2-d]pyrimidin-4-amine]",EC2x for IKBKAP protein expression (concentration producing two times the amount of IKBKAP protein vs DMSO vehicle control),* (EC2×>1 μM)
same,MFI (maximum fold increase in IKBKAP protein abundance relative to the vehicle control),** (between >1.9 and <2.9)
"Cc1c(C[C@@H](N)CCO)sc2c(NCc3ccco3)nc(Cl)nc12 [Cpd 97, (3S)-3-amino-4-(2-chloro-4-{[(furan-2-yl)methyl]amino}-7-methylthieno[3,2-d]pyrimidin-6-yl)butan-1-ol]",EC2x for IKBKAP protein expression (concentration producing two times the amount of IKBKAP protein vs DMSO vehicle control),***** (<0.005 μM)
same,MFI (maximum fold increase in IKBKAP protein abundance relative to the vehicle control),***** (>4.9)
"Cc1c(C[C@H](C)N)sc2c(NCc3ncncc3F)nc(Cl)nc12 [Cpd 98, 6-[(2S)-2-aminopropyl]-2-chloro-N-[(5-fluoropyrimidin-4-yl)methyl]-7-methylthieno[3,2-d]pyrimidin-4-amine]",EC2x for IKBKAP protein expression (concentration producing two times the amount of IKBKAP protein vs DMSO vehicle control),**** (between >0.005 μM and ≤0.02 μM)
same,MFI (maximum fold increase in IKBKAP protein abundance relative to the vehicle control),***** (>4.9)
"COc1c(C[C@@H](N)CO)sc2c(NCc3cccs3)nc(Cl)nc12 [Cpd 99, (2R)-2-amino-3-(2-chloro-7-methoxy-4-{[(thiophen-2-yl)methyl]amino}thieno[3,2-d]pyrimidin-6-yl)propan-1-ol]",EC2x for IKBKAP protein expression (concentration producing two times the amount of IKBKAP protein vs DMSO vehicle control),**** (between >0.005 μM and ≤0.02 μM)
same,MFI (maximum fold increase in IKBKAP protein abundance relative to the vehicle control),*** (between >2.9 and <3.9)
